Experimental findings from ChEMBL document CHEMBL1201862, “PubChem BioAssay data set” (2004) are described below.

In general, AC50 refers to the midpoint of the concentration-response curve, whichever way the signal moves. Usually EC50 stands for the midpoint of the concentration-response curve. What is called IC50 is the concentration that inhibits the measured activity by half. By CC50 is commonly meant the concentration that lowers cell viability or growth by half.

Assay [1] is described as follows: general mammalian cell viability loss – inhibitor set, cherry-pick, set 2, cytotoxicity control for miR-122 modulator project, dose response (AID 720697). It counts as functional, cell-based.
Assay [2] in a line: cells.
Assay [3] in a line: cells. Conditions: HEK293.
For assay [4], the target named is ATP-dependent translocase ABCB1 (Homo sapiens, UniProt P08183). Briefly: P-gp JC-1 efflux blockers potency – Jurkat-DNR cells, flow cytometry, follow-up, dose response (AID 489002). The format is functional. For orientation: Flow cytometry measures light scatter and fluorescence of single cells or particles in a stream.
Sequence of ATP-dependent translocase ABCB1 (P08183 whole entry): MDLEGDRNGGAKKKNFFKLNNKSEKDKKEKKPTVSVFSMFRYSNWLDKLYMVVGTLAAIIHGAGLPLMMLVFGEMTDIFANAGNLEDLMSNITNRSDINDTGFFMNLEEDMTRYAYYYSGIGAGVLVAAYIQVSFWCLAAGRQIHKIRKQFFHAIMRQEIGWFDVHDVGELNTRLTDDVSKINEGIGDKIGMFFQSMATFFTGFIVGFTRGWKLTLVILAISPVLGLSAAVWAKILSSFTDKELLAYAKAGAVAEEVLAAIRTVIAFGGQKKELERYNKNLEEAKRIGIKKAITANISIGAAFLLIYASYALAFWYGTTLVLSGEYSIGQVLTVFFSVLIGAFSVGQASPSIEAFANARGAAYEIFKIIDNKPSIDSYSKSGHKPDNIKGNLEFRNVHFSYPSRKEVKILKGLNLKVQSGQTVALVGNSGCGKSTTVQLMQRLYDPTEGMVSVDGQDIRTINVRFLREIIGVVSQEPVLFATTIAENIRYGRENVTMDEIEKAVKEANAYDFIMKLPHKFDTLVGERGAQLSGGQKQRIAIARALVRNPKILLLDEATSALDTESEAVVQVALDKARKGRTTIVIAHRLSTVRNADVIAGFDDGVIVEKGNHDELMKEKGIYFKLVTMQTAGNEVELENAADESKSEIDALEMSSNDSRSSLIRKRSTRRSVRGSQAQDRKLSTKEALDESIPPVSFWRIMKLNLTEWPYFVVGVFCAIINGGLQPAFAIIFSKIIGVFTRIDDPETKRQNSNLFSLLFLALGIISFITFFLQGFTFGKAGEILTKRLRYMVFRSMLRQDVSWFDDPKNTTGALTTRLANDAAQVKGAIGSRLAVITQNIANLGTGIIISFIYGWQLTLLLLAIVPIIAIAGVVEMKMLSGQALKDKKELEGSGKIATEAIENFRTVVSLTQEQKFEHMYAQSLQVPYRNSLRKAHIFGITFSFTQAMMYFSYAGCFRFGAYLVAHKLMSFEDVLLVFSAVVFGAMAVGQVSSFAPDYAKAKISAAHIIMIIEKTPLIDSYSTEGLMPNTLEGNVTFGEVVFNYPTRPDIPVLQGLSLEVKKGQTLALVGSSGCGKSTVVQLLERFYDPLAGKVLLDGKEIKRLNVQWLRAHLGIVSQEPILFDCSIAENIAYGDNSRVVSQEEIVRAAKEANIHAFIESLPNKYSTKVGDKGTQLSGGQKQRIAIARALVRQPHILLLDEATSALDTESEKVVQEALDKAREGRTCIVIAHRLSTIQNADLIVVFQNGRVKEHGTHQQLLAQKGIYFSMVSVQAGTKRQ
A further assay concerns the target Hexokinase-1 (Homo sapiens, UniProt P19367). Briefly: HK1 enzyme activation by HKDC1 hits – biochemical, selectivity assay for HKDC1 activator project, dose response (AID 504762). It counts as functional.
The test system of the next assay is INS1. The assay is described as follows: INS-1E survival protection against cytokine death – cell-based, luminescence, retest, dose response (AID 449756).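 Further: cell death triggered by IL-1 beta plus TNF-alpha plus IFN-gamma mixture; protective hits raise ATP signal compared with cytokine alone wells.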 As to conditions: Rattus norvegicus. The format is functional.
The target in assay [5] is Heat shock protein HSP 90-alpha (Homo sapiens, UniProt P07900). It counts as functional, organism-based.
Assay [6] has as its system BJ. The assay is described as follows: BJ-TERT fibroblast viability loss – cell-based, RAS-independent, luminescence, dose response (AID 1933). The format is functional. Conditions: Homo sapiens.
A further assay addresses Nonstructural protein 1 (Influenza A virus, UniProt Q194T2). The format is functional, Influenza A virus (A/California/07/2009(H1N1)).
A short description of assay [7]: MIN6 cell viability loss – mouse insulinoma, cytotoxicity control, dose response (AID 2122).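 Further: confirmatory high-throughput counterscreen run to flag cytotoxic compounds.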 The format is functional.
Assay [8] in a line: viability loss in HepG2 hepatoma cells – cell-based, ATP luminescence, cherry-pick, activator set 2, cytotoxicity control, dose response (AID 1053143). It counts as functional.
Assay [9] has as its system BJ. The assay is described as follows: BJ-TERT-LT-ST fibroblast viability loss – cell-based, RAS-independent, luminescence, dose response (AID 1935).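 Further: BJ fibroblasts immortalized with TERT plus LT and ST oncogenes.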 It counts as functional. As to conditions: Homo sapiens.
Assay [10] concerns BJ. Briefly: growth inhibition of engineered Ras-driven BJ cells – cell-based, alamar blue fluorescence, cherrypicked samples, dose response (AID 2631).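 Further: confirmatory dose-response assay in RAS-dependent BJ fibroblasts engineered with TERT, LT and ST, with cytotoxicity read by fluorescence.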 The format is functional. Conditions: Homo sapiens.
In assay [11] the test system is BJ. The assay is described as follows: cells. It counts as functional, cell-based. Conditions: Homo sapiens.
A further assay deals with T1, Hexokinase HKDC1 (Homo sapiens, UniProt Q2TB90).
T1 sequence (Q2TB90 whole entry): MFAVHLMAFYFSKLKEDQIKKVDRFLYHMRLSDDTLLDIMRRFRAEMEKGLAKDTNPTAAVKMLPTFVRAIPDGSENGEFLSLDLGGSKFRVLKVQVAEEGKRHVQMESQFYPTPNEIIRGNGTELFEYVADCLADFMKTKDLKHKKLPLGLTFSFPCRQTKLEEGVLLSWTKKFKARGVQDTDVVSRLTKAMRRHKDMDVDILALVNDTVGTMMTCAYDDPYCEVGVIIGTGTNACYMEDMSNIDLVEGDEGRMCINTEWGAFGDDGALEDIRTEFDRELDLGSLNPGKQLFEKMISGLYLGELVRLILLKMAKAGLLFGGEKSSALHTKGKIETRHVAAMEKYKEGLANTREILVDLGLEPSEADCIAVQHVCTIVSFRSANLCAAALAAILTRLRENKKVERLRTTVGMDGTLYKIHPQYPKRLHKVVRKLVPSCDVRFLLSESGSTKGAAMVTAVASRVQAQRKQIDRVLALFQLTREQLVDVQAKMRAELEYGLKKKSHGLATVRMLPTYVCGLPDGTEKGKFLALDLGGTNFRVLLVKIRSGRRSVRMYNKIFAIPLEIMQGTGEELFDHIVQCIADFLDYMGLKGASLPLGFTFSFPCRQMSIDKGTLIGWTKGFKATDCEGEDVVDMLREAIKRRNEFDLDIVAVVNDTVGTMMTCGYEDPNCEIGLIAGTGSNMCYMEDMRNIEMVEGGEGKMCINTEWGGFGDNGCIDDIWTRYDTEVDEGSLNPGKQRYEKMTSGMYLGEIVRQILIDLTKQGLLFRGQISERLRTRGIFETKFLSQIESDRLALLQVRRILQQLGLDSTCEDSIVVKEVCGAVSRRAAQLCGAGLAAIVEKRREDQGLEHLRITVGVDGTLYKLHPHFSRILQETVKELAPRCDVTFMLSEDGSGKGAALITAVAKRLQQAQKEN
The assay is described as follows: activation of HKDC1 glucose phosphorylation – biochemical, W721R variant, dose response (AID 504730). The format is functional.

A further assay deals with Streptococcus. Briefly: GAS UMAA2166 growth inhibition – luminescence, BacTiterGlo, counter-screen for streptokinase expression inhibitor project, dose response (AID 1915).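 Further: potency for reduction of bacterial viability or growth.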 It counts as functional, organism-based. On the technique in general: A counterscreen serves to expose hits that act by an unwanted route or on another target.
Another assay deals with Vero. The assay is described as follows: mammalian cell viability reduction – secondary assay, cytotoxicity control for West Nile virus antiviral project, dose response (AID 1650). As to conditions: Chlorocebus sabaeus. The format is functional.
Assay [12] relates to Streptococcus sp. 'group A'. The assay is described as follows: Streptococcus pyogenes SK(-)GAS viability under kanamycin – luminescence, BacTiterGlo, confirmation, counter-screen for streptokinase expression inhibitor project, dose response (AID 1900). It counts as functional, organism-based.
The nature of assay [13]: DRD fibroblast viability loss – cell-based, non-viral oncogenic, luminescence, dose response (AID 1934). It counts as functional. As to conditions: Homo sapiens.
A short description of assay [14]: decrease of insulin promoter-GFP reporter – imaging, high-content screening, mouse beta cells (AID 1628). It counts as functional. As to conditions: MIN6.
A short description of assay [15]: viability loss in A549 lung cancer cells – cell-based, cherry-picks, […], cytotoxicity control, dose response (AID 1053119). It counts as functional.
Assay [16] in a line: viability loss in HEK293 kidney cells – cell-based, cherry-picks, set 5, cytotoxicity control, dose response (AID 1053117). The format is functional.
The nature of assay [17]: blockers of FN fibrillogenesis by fibroblasts – AH1F cells, Alexa488-FN fluorescence, cherry-picks, dose response (AID 1035475). The format is functional, cell-based.
For assay [18], the target named is 1-phosphatidylinositol 4,5-bisphosphate phosphodiesterase gamma-1 (Homo sapiens, UniProt P19174). The assay is described as follows: Counterscreen for inhibitors of phospholipase C isozymes (PLC-B3): Fluorescence-based biochemical high throughput dose response assay to identify inhibitors of phospholipase C isozymes (PLC-gamma1).
Assay [19] addresses 1-phosphatidylinositol 4,5-bisphosphate phosphodiesterase beta-3 (Homo sapiens, UniProt Q01970). The assay is described as follows: Fluorescence-based biochemical high throughput dose response assay to identify inhibitors of phospholipase C isozymes (PLC-B3).
Assay [20] is described as follows: HeLa cell viability loss – plate reader, dry powder, cytotoxicity control, dose response (AID 651946). The format is functional, cell-based.
Assay [21] is described as follows: viability loss in human hepatoma cells – cell-based, CellTiter-Glo luminescence, cherry-pick, set 2, cytotoxicity control, dose response (AID 743395). The format is functional. (In ATP-based viability assays light output follows the ATP content of the culture.)
For assay [22], the target named is Photoreceptor-specific nuclear receptor (Homo sapiens, UniProt Q9Y5X4). The format is functional, cell-based.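 Further: CHO-S cells with Gal4-NCOR and VP16-NR2E3 two-hybrid luciferase reporter.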
Sequence of Photoreceptor-specific nuclear receptor (Q9Y5X4 whole entry, the tested form may be a part): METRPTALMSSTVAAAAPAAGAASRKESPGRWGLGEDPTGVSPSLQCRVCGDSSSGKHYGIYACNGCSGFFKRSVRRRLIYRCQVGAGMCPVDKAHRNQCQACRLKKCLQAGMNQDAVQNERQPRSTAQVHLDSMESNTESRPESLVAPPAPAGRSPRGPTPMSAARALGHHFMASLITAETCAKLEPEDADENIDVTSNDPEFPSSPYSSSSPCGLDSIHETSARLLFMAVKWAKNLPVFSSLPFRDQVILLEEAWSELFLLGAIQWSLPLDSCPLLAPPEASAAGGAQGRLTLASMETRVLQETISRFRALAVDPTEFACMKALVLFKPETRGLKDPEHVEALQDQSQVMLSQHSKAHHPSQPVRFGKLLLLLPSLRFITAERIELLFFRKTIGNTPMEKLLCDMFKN
The target in assay [23] is COUP transcription factor 2 (Homo sapiens, UniProt P24468). Briefly: Luminescence-based cell-based high throughput dose response assay to identify inhibitors of COUP-TFII (NR2F2). It counts as functional.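 Further: HEK293 cells transiently cotransfected with COUP-TFII expression vector and reporter; luciferase reporter luminescence driven by COUP-TFII from the pX2-168 reporter plasmid.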
Sequence of COUP transcription factor 2 (P24468 whole entry): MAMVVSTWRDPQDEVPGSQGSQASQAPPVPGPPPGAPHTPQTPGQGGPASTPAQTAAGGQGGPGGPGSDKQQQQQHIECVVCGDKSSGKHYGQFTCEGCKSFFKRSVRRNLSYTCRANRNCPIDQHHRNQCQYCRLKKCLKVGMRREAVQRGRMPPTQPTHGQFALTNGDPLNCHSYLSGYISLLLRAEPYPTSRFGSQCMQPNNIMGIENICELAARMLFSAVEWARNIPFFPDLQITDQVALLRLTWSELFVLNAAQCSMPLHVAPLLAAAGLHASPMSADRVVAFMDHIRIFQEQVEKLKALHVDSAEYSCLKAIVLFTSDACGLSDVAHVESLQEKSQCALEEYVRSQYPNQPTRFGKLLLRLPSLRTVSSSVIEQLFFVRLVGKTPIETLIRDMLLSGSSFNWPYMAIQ
A further assay addresses Protein Wnt-3a (Mus musculus, UniProt P27467). Briefly: SAR analysis of small molecule antagonists of Gli-SUFU in a Wnt3a luminescent reporter assay. The format is functional.

Activity calls are given as the source filed them.

Sequence of Protein Wnt-3a (P27467 whole entry): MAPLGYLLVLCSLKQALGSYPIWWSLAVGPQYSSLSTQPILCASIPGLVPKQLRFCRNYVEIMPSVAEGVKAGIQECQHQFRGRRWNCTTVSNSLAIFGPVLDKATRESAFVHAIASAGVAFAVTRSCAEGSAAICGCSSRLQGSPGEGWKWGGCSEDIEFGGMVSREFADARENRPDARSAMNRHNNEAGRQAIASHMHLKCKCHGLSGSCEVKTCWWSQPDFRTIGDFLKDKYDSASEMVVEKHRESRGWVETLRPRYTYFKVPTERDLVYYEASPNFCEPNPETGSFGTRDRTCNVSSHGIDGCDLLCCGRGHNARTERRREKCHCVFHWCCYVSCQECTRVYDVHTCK
Sequence of Hexokinase-1 (P19367 whole entry): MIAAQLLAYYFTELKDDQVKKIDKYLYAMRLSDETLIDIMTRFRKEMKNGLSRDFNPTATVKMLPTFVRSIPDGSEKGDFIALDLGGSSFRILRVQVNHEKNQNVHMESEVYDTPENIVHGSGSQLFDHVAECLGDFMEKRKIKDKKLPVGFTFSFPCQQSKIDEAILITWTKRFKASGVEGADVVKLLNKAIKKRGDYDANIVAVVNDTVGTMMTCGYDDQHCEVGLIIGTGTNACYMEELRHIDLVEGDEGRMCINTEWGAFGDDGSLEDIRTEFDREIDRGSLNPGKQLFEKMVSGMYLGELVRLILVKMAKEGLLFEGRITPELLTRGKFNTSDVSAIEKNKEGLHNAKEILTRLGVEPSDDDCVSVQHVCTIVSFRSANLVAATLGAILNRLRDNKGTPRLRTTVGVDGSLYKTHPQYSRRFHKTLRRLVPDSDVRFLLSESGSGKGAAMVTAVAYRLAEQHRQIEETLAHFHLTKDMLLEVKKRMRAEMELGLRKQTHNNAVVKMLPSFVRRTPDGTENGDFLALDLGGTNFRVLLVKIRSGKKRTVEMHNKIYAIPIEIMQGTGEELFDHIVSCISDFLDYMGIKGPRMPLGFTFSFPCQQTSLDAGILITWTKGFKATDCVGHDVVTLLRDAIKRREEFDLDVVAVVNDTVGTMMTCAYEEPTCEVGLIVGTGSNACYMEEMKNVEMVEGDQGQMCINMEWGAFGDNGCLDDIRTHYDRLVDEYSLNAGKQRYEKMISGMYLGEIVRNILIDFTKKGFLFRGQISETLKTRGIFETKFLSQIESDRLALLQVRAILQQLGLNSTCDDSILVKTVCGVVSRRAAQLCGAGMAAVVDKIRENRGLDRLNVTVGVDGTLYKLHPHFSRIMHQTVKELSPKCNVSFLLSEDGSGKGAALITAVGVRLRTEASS
Sequence of 1-phosphatidylinositol 4,5-bisphosphate phosphodiesterase beta-3 (Q01970 whole entry): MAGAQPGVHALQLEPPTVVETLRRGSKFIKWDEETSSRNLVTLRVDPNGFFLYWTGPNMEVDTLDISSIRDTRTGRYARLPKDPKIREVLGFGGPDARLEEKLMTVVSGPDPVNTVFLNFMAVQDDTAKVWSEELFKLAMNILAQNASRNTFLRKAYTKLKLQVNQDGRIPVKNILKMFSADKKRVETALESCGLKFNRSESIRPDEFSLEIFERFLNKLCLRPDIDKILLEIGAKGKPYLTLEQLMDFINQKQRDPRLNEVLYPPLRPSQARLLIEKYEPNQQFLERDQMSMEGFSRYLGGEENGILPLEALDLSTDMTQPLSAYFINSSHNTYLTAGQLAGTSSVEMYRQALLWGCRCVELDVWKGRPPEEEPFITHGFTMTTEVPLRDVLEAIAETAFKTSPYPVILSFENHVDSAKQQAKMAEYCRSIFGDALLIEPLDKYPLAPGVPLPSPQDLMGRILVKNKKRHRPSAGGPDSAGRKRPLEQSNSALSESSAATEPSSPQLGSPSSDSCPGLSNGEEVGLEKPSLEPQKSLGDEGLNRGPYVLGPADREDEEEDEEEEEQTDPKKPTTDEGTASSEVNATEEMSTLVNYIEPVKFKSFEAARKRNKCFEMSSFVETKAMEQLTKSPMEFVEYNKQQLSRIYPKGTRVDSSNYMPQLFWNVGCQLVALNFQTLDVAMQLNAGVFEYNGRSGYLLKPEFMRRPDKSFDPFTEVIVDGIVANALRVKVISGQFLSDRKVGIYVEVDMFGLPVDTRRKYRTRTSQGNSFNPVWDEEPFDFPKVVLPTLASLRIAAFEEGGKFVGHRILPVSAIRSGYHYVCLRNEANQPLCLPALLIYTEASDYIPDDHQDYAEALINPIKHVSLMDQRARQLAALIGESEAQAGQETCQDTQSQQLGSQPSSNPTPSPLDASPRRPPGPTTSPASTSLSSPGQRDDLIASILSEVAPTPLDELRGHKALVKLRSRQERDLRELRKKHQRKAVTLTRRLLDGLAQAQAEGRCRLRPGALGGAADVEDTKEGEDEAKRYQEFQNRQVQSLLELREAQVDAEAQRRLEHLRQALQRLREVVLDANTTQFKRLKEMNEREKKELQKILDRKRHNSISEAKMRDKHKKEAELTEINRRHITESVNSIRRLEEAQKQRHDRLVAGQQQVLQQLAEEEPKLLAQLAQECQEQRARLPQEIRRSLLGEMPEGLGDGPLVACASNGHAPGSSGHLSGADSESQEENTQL
Sequence of Nonstructural protein 1 (Q194T2 whole entry): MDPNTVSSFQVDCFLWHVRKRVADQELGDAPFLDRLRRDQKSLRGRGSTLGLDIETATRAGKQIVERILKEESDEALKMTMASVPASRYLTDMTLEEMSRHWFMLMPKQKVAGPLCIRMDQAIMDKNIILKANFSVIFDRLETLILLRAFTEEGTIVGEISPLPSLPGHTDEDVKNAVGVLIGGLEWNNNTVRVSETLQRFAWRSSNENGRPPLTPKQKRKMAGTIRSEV

`COc1cccc(NC(=O)Nc2ccc3c(c2)C(=O)N(C)C[C@@H](OC)[C@@H](C)CN[C@H](C)CO3)c1`: the AC50 in assay [1] was 1.49 µM (active).

On to `Cc1ccc2[nH]c3ccccc3c(=O)c2c1`, for which the AC50 in the assay “cells [2]” was 7.34 µM (active); in “cells [3]”, 38.6 µM (active).

Turning to `O=C(Nc1ccccc1)C1CCN(c2cc(-c3ccco3)nc3cc(-c4ccccc4)nn23)CC1`, the EC50 in assay [4] stood at 0.1399 µM.

Turning to `CC(C)(C)c1nnc(N/N=C/c2cc(Br)ccc2O)n(N)c1=O`, the EC50 at Hexokinase-1 was > 80 µM (inactive); in the assay on BJ [6], 0.681 µM (active); in the assay with BJ [9] it was 0.706 µM (inconclusive); in the assay with BJ [10], 1.24 µM (active); in the assay with BJ [11], 3.69 µM (inconclusive); on Hexokinase HKDC1, 19.9 µM (active). Further, the EC50 in the assay with Streptococcus was 3.18 µM (active); in assay [12], 2.91 µM (active); in assay [13], 1.01 µM (active). The concentration at half-maximal activity (AC50) in the assay with INS1 is 0.859 µM (active); in [5], 5.57 µM (active); in [8] it was 5.77 µM (active). Also, the figures for the IC50 (on Nonstructural protein 1; in [7]; in [14]) were 16.6 µM (active), 2.08 µM (active) and 1.81 µM (active), respectively. The CC50 in the assay with Vero was 5 µM (active).

As for `CCOc1cccc(C(=O)Nc2ccc(N(CC)CC)cc2)c1`, the results for the AC50 in assay [15], in [16] and in [17] were > 52 µM (inactive), 34.6 µM (active) and 64.4 µM (active), respectively.

For the compound `CC/C(NCC1CCCO1)=C1/C(=O)NC(=O)N(Cc2ccccc2)C1=O` (stereo not given), the IC50 in assay [18] and in assay [19] was > 122 µM (inactive) in each case.

Consider `FC(F)(F)Oc1ccccc1CSc1nnc(-c2ccccc2)o1`, for which the AC50 in assay [20] was > 52 µM (inactive).

Consider `COc1ccc(NC(=O)c2cc(S(=O)(=O)N3CCOCC3)ccc2C)cc1S(=O)(=O)N1CCOCC1`, for which the AbsAC35_uM in [21] is 36.86 µM.

Turning to `OC[C@@H]1CN(Cc2ccc(-c3ccccc3)cc2)C[C@H](n2cnc3c(NCc4ccncc4)ncnc32)O1`, the IC50 was 1.52 µM (active) in assay [22] and 10 µM (inactive) in assay [23].

For `COc1ccccc1C(=O)Nc1cc(N2CCCCC2)ncn1`, the IC50 at Protein Wnt-3a is > 21.8 µM (inactive).
